# In patent US20240108662A1, “ENGINEERED CELLS FUNCTIONALIZED WITH IMMUNE CHECKPOINT MOLECULES AND USES THEREOF” (The University of North Carolina at Chapel Hill, priority 2020, published 2024):
# How the values were obtained:
# Assay type in all cases: cell-based, mouse
# [1] = system: 2D2 cells (MOG-specific CD4+ T cells); test: PD-1 and CTLA-4 expressions of myelin-specific 2D2 cells after co-culture (FACS); settings: E:T 10:1, 48 h
# Protocol: Myelin-specific CD4 T cell in vitro activation: Mouse IFN-γ and mouse IL-17A secreted from the activated myelin-specific 2D2 cells were quantified by ELISA assays as previously reported^56. […] The cell culture media (contain mainly the 2D2 cells) were preserved. 2D2 cells were collected from the cultured media via centrifugation at 1,000 g for 10 min. The moue IFN-γ and mouse IL-17A concentrations in the supernatants were quantified via mouse IFN-γ ELISA kit (ab100689; Abcam, Cambridge, MA) and mouse IL-17A ELISA kit (ab199081; Abcam, Cambridge, MA), according to manufacturer's instructions. […] MIH4, catalog number: 53-9969-42, Invitrogen), PE-labeled anti-mouse CTLA-4 antibody (clone: […] Stained cells were fixed with 4% paraformaldehyde (4% PFA; Sigma) and kept in dark at 4° C. before further FACS study.
# MOLs = test: MTS viability assay, MOLs
# Protocol: (§1) In vitro toxicity of Ac4ManNAz and LEF, and viabilities of functionalized MSCs and MOLs: In vitro toxicities of Ac4ManNAz and LEF against MSCs and MOLs, and the viabilities of functionalized MSCs and MOLs were quantified by MTS assay. Briefly, treated/functionalized cells were cultured in complete media for 4 days. The phenol-red media was replaced by phenol red-free DMEM (supplemented with 10% FBS) before quantifying the viabilities via MTS assay according to the manufacturer's protocol. The MSCs were seeded at a density of 2×10^4 cells per well and the MOLs were seeded at a density of 1×10^4 cells per well in a 96-well plate.
# MSCs = test: MTS viability assay, MSCs
# Protocol: as §1
smiles,measurement,setting,value
"Cc1oncc1C(=O)Nc1ccc(C(F)(F)F)cc1 [small-molecule LEF, Leflunomide]",upregulation of PD-1 and CTLA-4 in co-cultured 2D2 cells,[1],increased the expression of CTLA-4 in the co-cultured 2D2 cells
same,in vitro toxicity against MOLs,MOLs,insignificant toxicity
same,in vitro toxicity against MSCs,MSCs,moderate in vitro toxicity
